Assay results from patent US4678781A, “3-substituted-aminomethyl cephalosporin derivatives” (ICI Pharma, priority 1983, dated 1987).
In brackets after ≈: the same amount, converted by molar mass.

Legend:
Prot. mirabilis = test: MIC, agar-dilution technique, standard in vitro test; assay type: cell-based; settings: Proteus mirabilis; strain code A8432057; Isosensitest agar; inoculum 10^4 CFU./spot; read-out: minimum inhibitory concentration (MIC)
Description: (§1) The results set out in the following Table are illustrative of the biological activity of the compounds of the present invention. The listed compounds all carry a 1-methyl-4-pyridinioaminomethyl radical at the 3-position of the cephalosporin nucleus and a variety of known substituents at the 7-position. The following results are those obtained on a standard in vitro test system and using Isosensitest agar medium. The antibacterial activity is described in terms of the minimum inhibitory concentration (MIC) determined by agar-dilution technique with an inoculum size of 10^4 CFU./spot.

P. aeruginosa = test: as above; assay type: cell-based; settings: Pseudomonas aeruginosa; strain code A8101028; Isosensitest agar; inoculum 10^4 CFU./spot; read-out: minimum inhibitory concentration (MIC)
Description: as §1

Kleb. aerogenes = test: as above; assay type: cell-based; settings: Klebsiella aerogenes; strain code A8391027; Isosensitest agar; inoculum 10^4 CFU./spot; read-out: minimum inhibitory concentration (MIC)
Description: as §1

Sal. dublin = test: as above; assay type: cell-based; settings: Salmonella enterica; strain code A8369001; Isosensitest agar; inoculum 10^4 CFU./spot; read-out: minimum inhibitory concentration (MIC)
Description: as §1

E. coli = test: as above; assay type: cell-based; settings: Escherichia coli; strain code A8341098; Isosensitest agar; inoculum 10^4 CFU./spot; read-out: minimum inhibitory concentration (MIC)
Description: as §1

Strep. pyogenes = test: as above; assay type: cell-based; settings: Streptococcus pyogenes; strain code A8681018; Isosensitest agar; inoculum 10^4 CFU./spot; read-out: minimum inhibitory concentration (MIC)
Description: as §1

Ent. cloacae = test: as above; assay type: cell-based; settings: Enterobacter cloacae; strain code A8401054; Isosensitest agar; inoculum 10^4 CFU./spot; read-out: minimum inhibitory concentration (MIC)
Description: as §1

Staph. aureus = test: as above; assay type: cell-based; settings: Staphylococcus aureus; strain code A8601052; Isosensitest agar; inoculum 10^4 CFU./spot; read-out: minimum inhibitory concentration (MIC)
Description: as §1

Serr. marcescens = test: as above; assay type: cell-based; settings: Serratia marcescens; strain code A8421020; Isosensitest agar; inoculum 10^4 CFU./spot; read-out: minimum inhibitory concentration (MIC)
Description: as §1

[1] = Toxicity observation in mice after subcutaneous administration; assay type: in vivo; settings: two single doses over one day, each at least five times the PD50 against Salmonella dublin
Method: A number of compounds were administered to mice at doses in excess of those required to afford protection against bacterial infections. Thus for example the compounds of Examples 23, 70 and 74 were administered subcutaneously to mice in two single doses over one day, each dose being at least five times the minimum effective dose which protected 50% of the mice against infection with Salmonella dublin (PD50).

Row | Structure (SMILES) | MIC (Prot. mirabilis) | MIC (P. aeruginosa) | MIC (Kleb. aerogenes) | MIC (Sal. dublin) | MIC (E. coli) | MIC (Strep. pyogenes) | MIC (Ent. cloacae) | MIC (Staph. aureus) | MIC (Serr. marcescens) | overt toxic symptoms or side effects [1]
1 | CO/N=C(\C(=O)N[C@@H]1C(=O)N2C(C(=O)O)=C(CNc3cc[n+](C)cc3)CS[C@H]12)c1csc(N)n1 [Example 9] | 0.064 µg/mL | 16 µg/mL | 0.032 µg/mL | 0.25 µg/mL | 0.032 µg/mL | 0.016 µg/mL | 0.064 µg/mL | 1 µg/mL | 0.13 µg/mL | –
2 | C[n+]1ccc(NCC2=C(C(=O)[O-])N3C(=O)[C@@H](NC(=O)/C(=N\OC(C)(C)C(=O)O)c4csc(N)n4)[C@H]3SC2)cc1 [Example 23] | 0.064 µg/mL (≈ 0.111 µM) | 2 µg/mL (≈ 3.47 µM) | 0.13 µg/mL (≈ 0.226 µM) | 0.25 µg/mL (≈ 0.434 µM) | 0.13 µg/mL (≈ 0.226 µM) | 0.13 µg/mL (≈ 0.226 µM) | 0.5 µg/mL (≈ 0.869 µM) | 8 µg/mL (≈ 13.9 µM) | 0.25 µg/mL (≈ 0.434 µM) | No overt toxic symptoms or side effects attributable to the administered compounds were noted
3 | C=CCO/N=C(\C(=O)N[C@@H]1C(=O)N2C(C(=O)[O-])=C(CNc3cc[n+](C)cc3)CS[C@H]12)c1csc(N)n1 [Example 70] | 0.5 µg/mL (≈ 0.944 µM) | 32 µg/mL (≈ 60.4 µM) | 0.13 µg/mL (≈ 0.245 µM) | 0.5 µg/mL (≈ 0.944 µM) | 0.25 µg/mL (≈ 0.472 µM) | < 0.016 µg/mL | 1 µg/mL (≈ 1.89 µM) | 1 µg/mL (≈ 1.89 µM) | 0.5 µg/mL (≈ 0.944 µM) | No overt toxic symptoms or side effects attributable to the administered compounds were noted
4 | C[n+]1ccc(NCC2=C(C(=O)[O-])N3C(=O)[C@@H](NC(=O)/C(=N\OC4(C(=O)O)CCC4)c4csc(N)n4)[C@H]3SC2)cc1 [Example 74] | 0.13 µg/mL (≈ 0.221 µM) | 4 µg/mL (≈ 6.81 µM) | 0.5 µg/mL (≈ 0.851 µM) | 0.13 µg/mL (≈ 0.221 µM) | 0.25 µg/mL (≈ 0.425 µM) | 0.25 µg/mL (≈ 0.425 µM) | 1 µg/mL (≈ 1.7 µM) | 8 µg/mL (≈ 13.6 µM) | 1 µg/mL (≈ 1.7 µM) | No overt toxic symptoms or side effects attributable to the administered compounds were noted
5 | CCN1CCN(C(=O)N[C@@H](C(=O)N[C@@H]2C(=O)N3C(C(=O)[O-])=C(CNc4cc[n+](C)cc4)CS[C@H]23)c2ccc(O)cc2)C(=O)C1=O [Example 81] | 32 µg/mL (≈ 50.2 µM) | > 128 µg/mL | 2 µg/mL (≈ 3.14 µM) | 8 µg/mL (≈ 12.5 µM) | 2 µg/mL (≈ 3.14 µM) | 0.13 µg/mL (≈ 0.204 µM) | 4 µg/mL (≈ 6.27 µM) | 1 µg/mL (≈ 1.57 µM) | 8 µg/mL (≈ 12.5 µM) | –
6 | C[n+]1ccc(NCC2=C(C(=O)[O-])N3C(=O)[C@@H](NC(=O)[C@H](NC(=O)c4n[nH]c(=O)nc4O)c4ccc(O)cc4)[C@H]3SC2)cc1 [Example 82] | 32 µg/mL (≈ 52.6 µM) | > 12 µg/mL | 64 µg/mL (≈ 105 µM) | 64 µg/mL (≈ 105 µM) | 128 µg/mL (≈ 210 µM) | 0.5 µg/mL (≈ 0.822 µM) | > 128 µg/mL | 2 µg/mL (≈ 3.29 µM) | > 128 µg/mL | –
7 | C[n+]1ccc(NCC2=C(C(=O)[O-])N3C(=O)[C@@H](NC(=O)/C(=N\OCC#N)c4csc(N)n4)[C@H]3SC2)cc1 [Example 96] | 0.064 µg/mL (≈ 0.121 µM) | 32 µg/mL (≈ 60.5 µM) | < 0.016 µg/mL | 0.064 µg/mL (≈ 0.121 µM) | 0.032 µg/mL (≈ 0.0605 µM) | – | 0.25 µg/mL (≈ 0.473 µM) | 0.5 µg/mL (≈ 0.946 µM) | 0.032 µg/mL (≈ 0.0605 µM) | –
